Measurements reported in US9527832B2, “Substituted condensed pyrimidine compounds” (GRÜNENTHAL GMBH, priority 2013, dated 2016).

Molecular target: T1, human PDE4B1 (Homo sapiens, UniProt Q07343)
T1 construct: host or cells: Sf9 cells
Assay: cAMP HTRF assay to determine the activity of hPDE4B1
Assay type: biochemical
Conditions: for inhibition at 1 µM / Inhibition at 1 μM test concentration [%]: Percentage inhibition of PDE4B at 1 μM test concentration; for IC50: dose response measurements with eight concentrations, reported as ranges, read-out: IC50
Experimental: cAMP HTRF® Assay to Determine the Activity of hPDE4B1
The inhibiting effect of the compounds on the enzyme activity of human PDE4B1 was measured by the quantification of 5′-adenosine monophosphate (5′-AMP), which is formed from 3′,5′-cyclic adenosine monophosphate (cAMP). Human recombinant enzyme, expressed in Sf9 cells, and the HTRF (homogeneous time-resolved fluorescence) detection method were used in the assay.
The test compound or water (control) was mixed with the human recombinant PDE4B1 enzyme (4.8 U) in a buffer consisting of 44.4 mM tris-HCl, 5.28 mM MgCl2, 2.64 mM DTT and 0.044% Tween 20 (pH 7.8). After adding the cAMP enzyme substrate (final concentration 40 nM), the mixture was incubated for 30 minutes at room temperature. Then a fluorescence acceptor (Dye2 marked with cAMP), a fluorescence donor (anti-cAMP antibody marked with a europium cryptate) and the non-specific phosphodiesterase inhibitor IBMX (3-isobutyl-1-methylxanthine; final concentration 1 mM) were added. After 60 minutes the fluorescence transfer, which correlates with the amount of remaining cAMP, was measured with a microplate reader (Rubystar, BMG) at λex=337 nm, λem=620 nm and λem=665 nm. The enzyme activity was calculated from the quotient formed from the measured signal at 665 nm and that at 620 nm. The result was expressed as the percentage inhibition of enzyme activity of the control (without PDE4 inhibitor). The enzyme was omitted for measurement of the basal control.
IC50 values (IC50=concentration causing a half-maximal inhibition of control specific activity) were derived from dose response measurements with eight different concentrations (n=2; N=1-2).
Literature: N. Saldou et al., Comparison of recombinant human PDE4 isoforms: interaction with substrate and inhibitors, Cell. Signal. Vol. 10, No. 6, 427-440, 1998

T1 sequence (Q07343 whole entry): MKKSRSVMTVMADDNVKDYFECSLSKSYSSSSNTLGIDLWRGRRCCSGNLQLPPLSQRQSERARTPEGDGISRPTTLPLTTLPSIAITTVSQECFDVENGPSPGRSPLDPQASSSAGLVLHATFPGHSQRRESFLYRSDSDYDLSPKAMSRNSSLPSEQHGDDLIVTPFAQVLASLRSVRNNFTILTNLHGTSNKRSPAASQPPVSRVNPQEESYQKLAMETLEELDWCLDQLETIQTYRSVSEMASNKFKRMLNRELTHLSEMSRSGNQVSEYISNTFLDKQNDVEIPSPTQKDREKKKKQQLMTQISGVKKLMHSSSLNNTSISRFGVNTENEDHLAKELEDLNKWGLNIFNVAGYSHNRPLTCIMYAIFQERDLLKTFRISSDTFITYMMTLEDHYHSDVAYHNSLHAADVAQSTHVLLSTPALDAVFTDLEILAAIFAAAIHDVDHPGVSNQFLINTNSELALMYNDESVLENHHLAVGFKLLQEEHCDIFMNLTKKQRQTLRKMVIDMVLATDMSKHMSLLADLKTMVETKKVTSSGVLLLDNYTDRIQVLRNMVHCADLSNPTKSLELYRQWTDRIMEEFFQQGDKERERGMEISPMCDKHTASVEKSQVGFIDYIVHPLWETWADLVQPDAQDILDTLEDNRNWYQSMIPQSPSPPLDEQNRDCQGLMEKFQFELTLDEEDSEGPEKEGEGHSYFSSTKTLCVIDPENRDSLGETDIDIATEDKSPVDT

Row | Structure (SMILES) | inhibition at 1 µM [%] | IC50 [nM] | Inhibition at 1 μM test concentration [%] (1 µM) | Inhibition at 1 μM test concentration [%]
1 | CN(C)C(=O)COc1ccc2c(c1)N(c1nc(-c3ccc(C#N)cc3)nc3c1C[S+]([O-])C3)CC2 (centres unmarked) [2-92, 2-[[1-[2-(4-Cyano-phenyl)-6-oxo-5,7-dihydro-thieno[3,4-d]pyrimidin-4-yl]-2,3-dihydro-1H-indol-6-yl]oxy]-N,N-dimethyl-acetamide] | 97 | < 100 | – | –
2 | O=C(O)Cc1ccc2c(c1)CCN2c1nc(-c2ccc(F)s2)nc2c1CS(=O)(=O)C2 [Compound No. 1-25, 2-(1-(2-(5-Fluoro-thiophen-2-yl)-6,6-dioxo-5,7-dihydro-thieno[3,4-d]pyrimidin-4-yl)-2,3-dihydro-1H-indol-5-yl)acetic acid] | 103 | < 100 | – | –
3 | O=C(COc1ccc2c(c1)N(c1nc(-c3ccc(Cl)s3)nc3c1CS(=O)(=O)C3)CC2)N1CCCC1 [Compound No. 2-126, 2-((1-(2-(5-Chlorothiophen-2-yl)-6,6-dioxido-5,7-dihydrothieno[3,4-d]pyrimidin-4-yl)indolin-6-yl)oxy)-1-(pyrrolidin-1-yl)ethanone] | 104 | < 100 | – | –
4 | O=C(O)Cc1ccc2c(c1)CC(=O)N2c1nc(-c2ccc(Cl)s2)nc2c1CCC2 [Compound No. 1-64, 2-(1-(2-(5-Chlorothiophen-2-yl)-6,7-dihydro-5H-cyclopenta[d]-pyrimidin-4-yl)-2-oxoindolin-5-yl)acetic acid] | 28 | – | – | –
5 | COc1ccc(-c2nc3c(c(N4CCc5cc(CC(=O)O)ccc54)n2)C[S+]([O-])C3)cc1Cl (centres unmarked) [Compound No. 1-8, 2-(1-(2-(3-Chloro-4-methoxyphenyl)-6-oxido-5,7-dihydrothieno[3,4-d]pyrimidin-4-yl)indolin-5-yl)acetic acid] | 102 | < 100 | – | –
6 | CNC(=O)Cc1ccc2c(c1)CCN2c1nc(-c2ccc(Cl)s2)nc2c1CS(=O)(=O)C2 [Compound No. 3-5, 2-(1-(2-(5-Chlorothiophen-2-yl)-6,6-dioxido-5,7-dihydrothieno[3,4-d]pyrimidin-4-yl)indolin-5-yl)-N-methylacetamide] | – | 100 to 1000 | – | –
7 | COc1ccc(-c2nc3c(c(N4CCc5ccc(OCC(=O)N(C)C)cc54)n2)C[S+]([O-])C3)cc1 (centres unmarked) [2-20, 2-[[1-[2-(4-Methoxyphenyl)-6-oxo-5,7-dihydro-thieno[3,4-d]pyrimidin-4-yl]-2,3-dihydro-1H-indol-6-yl]oxy]-N,N-dimethyl-acetamide] | – | – | 98 | –
8 | COC(=O)Cc1ccc2c(c1)CCN2c1nc(-c2ccc(Cl)s2)nc2c1CS(=O)(=O)C2 [Compound No. 1-78, Methyl 2-(1-(2-(5-chlorothiophen-2-yl)-6,6-dioxido-5,7-dihydrothieno[3,4-d]pyrimidin-4-yl)indolin-5-yl)acetate] | 25 | – | – | –
9 | O=C(O)Cc1ccc2c(c1)CCN2c1nc(-c2ccc(Cl)s2)nc2c1CCC2 [Compound No. 1-13, 2-(1-(2-(5-Chlorothiophen-2-yl)-6,7-dihydro-5H-cyclopenta[d]-pyrimidin-4-yl)indolin-5-yl)acetic acid] | 78 | < 100 | – | –
10 | COc1ccc(-c2nc3c(c(N4CCc5ccc(OCC(=O)N(C)C)cc54)n2)C[S+]([O-])C3)cc1 (centres unmarked) [2-18, 2-((1-(2-(4-Methoxyphenyl)-6-oxido-5,7-dihydrothieno[3,4-d]pyrimidin-4-yl)indolin-6-yl)oxy)-N,N-dimethylacetamide] | 105 | < 100 | – | –
11 | O=C(O)Cc1ccc2c(c1)CCN2c1nc(-c2ccc(Cl)s2)nc2c1CSC2 [Compound No. 1-20, 2-(1-(2-(5-Chlorothiophen-2-yl)-5,7-dihydrothieno[3,4-d]pyrimidin-4-yl)indolin-5-yl)acetic acid] | 92 | < 100 | – | –
12 | CN(C)C(=O)COc1ccc2c(c1)N(c1nc(-c3ccccc3NS(C)(=O)=O)nc3c1C[S+]([O-])C3)CC2 (centres unmarked) [2-104, 2-[[1-[2-[2-(Methanesulfonamido)-phenyl]-6-oxo-5,7-dihydro-thieno[3,4-d]pyrimidin-4-yl]-2,3-dihydro-1H-indol-6-yl]oxy]-N,N-dimethyl-acetamide] | 85 | 100 to 1000 | – | –
13 | O=C(COc1ccc2c(c1)N(c1nc(-c3ccc(Cl)s3)nc3c1CS(=O)(=O)C3)CC2)N1CCC1 [Compound No. 2-124, 1-(Azetidin-1-yl)-2-((1-(2-(5-chlorothiophen-2-yl)-6,6-dioxido-5,7-dihydrothieno[3,4-d]pyrimidin-4-yl)indolin-6-yl)oxy)ethanone] | 104 | < 100 | – | –
14 | O=C(O)Cc1ccc2c(c1)CCN2c1nc(-c2cc3ccccc3s2)nc2c1C[S+]([O-])C2 (centres unmarked) [Compound No. 1-80, 2-(1-(2-(Benzo[b]thiophen-2-yl)-6-oxido-5,7-dihydrothieno[3,4-d]pyrimidin-4-yl)indolin-5-yl)acetic acid] | 108 | < 100 | – | –
15 | CN(C)C(=O)COc1ccc2c(c1)N(c1nc(-c3ccc(F)cc3)nc3c1C[S+]([O-])C3)CC2 (centres unmarked) [2-99, 2-[[1-[2-(4-Fluorophenyl)-6-oxo-5,7-dihydro-thieno[3,4-d]pyrimidin-4-yl]-2,3-dihydro-1H-indol-6-yl]oxy]-N,N-dimethyl-acetamide] | 104 | < 100 | – | –
16 | CN(C)C(=O)COc1ccc2c(c1)N(c1nc(-c3cnc4ccccc4c3)nc3c1C[S+]([O-])C3)CC2 (centres unmarked) [2-146, N,N-Dimethyl-2-[[1-(6-oxo-2-quinolin-3-yl-5,7-dihydro-thieno[3,4-d]pyrimidin-4-yl)-2,3-dihydro-1H-indol-6-yl]oxy]-acetamide] | 104 | < 100 | – | –
17 | O=C(O)Cc1ccc2c(c1)CCN2c1nc(-c2ccc(Cl)s2)nc2c1C[S+]([O-])C2 (centres unmarked) [Compound No. 1-21, 2-(1-(2-(5-Chlor-thiophen-2-yl)-6-oxo-5,7-dihydro-thieno[3,4-d]pyrimidin-4-yl)-2,3-dihydro-1H-indol-5-yl)acetic acid] | – | – | – | 88
18 | CCNC(=O)Cc1ccc2c(c1)CCN2c1nc(-c2ccc(Cl)s2)nc2c1CS(=O)(=O)C2 [Compound No. 3-4, 2-(1-(2-(5-Chlorothiophen-2-yl)-6,6-dioxido-5,7-dihydrothieno[3,4-d]pyrimidin-4-yl)indolin-5-yl)-N-ethylacetamide] | – | 100 to 1000 | – | –
19 | CN(C)C(=O)COc1ccc2c(c1)N(c1nc(-c3cccc(C(N)=O)c3)nc3c1C[S+]([O-])C3)CC2 (centres unmarked) [2-108, 3-[4-[6-[(Dimethyl-carbamoyl)-methoxy]-2,3-dihydro-1H-indol-1-yl]-6-oxo-5,7-dihydro-thieno[3,4-d]pyrimidin-2-yl]-benzamide] | 62 | – | – | –
20 | CN(C)C(=O)COc1ccc2c(c1)N(c1nc(-c3ccc(C#N)s3)nc3c1C[S+]([O-])C3)CC2 (centres unmarked) [Compound No. 2-82, 2-((1-(2-(5-Cyanothiophen-2-yl)-6-oxido-5,7-dihydrothieno[3,4-d]pyrimidin-4-yl)indolin-6-yl)oxy)-N,N-dimethylacetamide] | 99 | < 100 | – | –
21 | O=C(COc1ccc2c(c1)N(c1nc(-c3ccc(Cl)s3)nc3c1C[S+]([O-])C3)CC2)N1CCOCC1 (centres unmarked) [Compound No. 2-118, 2-((1-(2-(5-Chlorothiophen-2-yl)-6-oxido-5,7-dihydrothieno[3,4-d]pyrimidin-4-yl)indolin-6-yl)oxy)-1-morpholinoethanone] | 93 | – | – | –
22 | COc1ccc(-c2nc3c(c(N4CCc5ccc(OCC(=O)N(C)C)cc54)n2)CSC3)cc1Cl [2-31] | – | < 100 | – | –
23 | O=C(COc1ccc2c(c1)N(c1nc(-c3ccncc3)nc3c1C[S+]([O-])C3)CC2)N1CCCC1 (centres unmarked) [Compound No. 2-133, 2-((1-(6-Oxido-2-(pyridin-4-yl)-5,7-dihydrothieno[3,4-d]pyrimidin-4-yl)indolin-6-yl)oxy)-1-(pyrrolidin-1-yl)ethanone] | 94 | < 100 | – | –
24 | CN(C)C(=O)COc1ccc2c(c1)N(c1nc(-c3ccoc3)nc3c1C[S+]([O-])C3)CC2 (centres unmarked) [2-102, 2-[[1-[2-(Furan-3-yl)-6-oxo-5,7-dihydro-thieno[3,4-d]pyrimidin-4-yl]-2,3-dihydro-1H-indol-6-yl]oxy]-N,N-dimethyl-acetamide] | 110 | < 100 | – | –
25 | COc1ccc(-c2nc3c(c(-n4ncc5cc(CC(=O)O)ccc54)n2)CCC3)cc1Cl [Compound No. 1-59, 2-(1-(2-(3-Chloro-4-methoxyphenyl)-6,7-dihydro-5H-cyclopenta[d]-pyrimidin-4-yl)-1H-indazol-5-yl)acetic acid] | 38 | – | – | –
26 | CN(C)C(=O)Cc1ccc2c(c1)CCN2c1nc(-c2ccc(Cl)s2)nc2c1CS(=O)(=O)C2 [Compound No. 3-8, 2-(1-(2-(5-Chlorothiophen-2-yl)-6,6-dioxido-5,7-dihydrothieno[3,4-d]pyrimidin-4-yl)indolin-5-yl)-N,N-dimethylacetamide] | 32 | – | – | –
